Results: patent US20200121747A1, “COMPOSITION FOR PREVENTING OR TREATING ARTHRITIS COMPRISING HYDROQUINOIC ACID” (PUKYONG NATIONAL UNIVERSITY INDUSTRY-UNIVERSITY COOPERATION …, priority 2018, published 2020)

Experiment: Body weight change in rheumatoid arthritis (CIA) mice
Type: in vivo, DBA/1J mice
Conditions: arthritis mice treated with 10 mg and 20 mg of SHQA; measured weekly for 7 weeks; FIG. 4
Protocol: Eight weeks old male DBA/1J mice (Central Lab Animal Inc., Seoul, Korea) were raised for 1 week in an environment maintaining temperature (25±2° C.), humidity (55%) and 12 hour light and dark cycle. All experiments were carried out in accordance with the guidelines of the Korean National Institutes of Health Guide for the Care and Use of Laboratory Animals, and the animal testing procedure was approved by the Animal Ethics Committee of Pukyong National University (2015-12). Rheumatoid arthritis was induced in male DBA/1J mice. Type II collagen was emulsified (CFA; 2 mg/mL) in the same volume of complete Freund's adjuvant. On day 0, 100 μg of […] was injected intradermally into the lower tail portion of the DBA/1J mice to immunize. After 21 days, 100 μg of CII (IFA; 2 mg/mL) emulsified in the same volume of incomplete Freund's adjuvant in the lower tail portion of the mice was boosted by intradermal injection. On day 42, all mice were anesthetized with ether and sacrificed. Blood (plasma sample), spleen, liver and joint tissues were immediately removed and stored at −80° C. […]
For the control group without treatment, the arthritis animal group (CIA treatment group), and the treated group in which arthritis experimental animals were treated with 10 mg and 20 mg of SHQA, their body weights were measured weekly for 7 weeks. […]

For CC(C)=CCC/C(=C/CC/C(C)=C/CC/C(C)=C/Cc1cc(O)cc(C)c1O)C(=O)O [SHQA, sargahydroquinoic acid], the “change in body weight” value was “no significant change in body weight”.
